Reference: patent US20070265451A1, “Process for the preparation of oxazolidinones and method of use thereof” (Board of Trustees of Michigan State University, priority 2001, published 2007)
In brackets after ≈: the same amount, converted by molar mass. Like-named read-outs stand apart in the source and are kept apart here.

Columns and labels:
Assay type in all cases: cell-based
[1] = test system: Staphylococcus aureus NRS3 (963sm; HIP5827; Michigan); assay: Broth microdilution MIC, MR SA Michigan; conditions: strain Michigan; for MIC90: Staphylococcus aureus, NRS3, methicillin resistant SA, read-out: MIC90-100 MR SA Michigan
From the text: (§1) See, NCCLS document M7-A5. Methods for Dilution Antimicrobial Susceptibility Tests for Bacteria That Grow Aerobically; Approved Standard-Fifth Edition. Volume 20, Number 2. January 2000, (ISBN 1-56238-394-9) and Lorian V. Antibiotics. Laboratory Medicine. 4th ed. Baltimore: Williams and Wilkins, pp. 52-111 (1996). For subsequent testing, the following strains have been used: Staphylococcus aureus NRS4 (992; HIP5836; New Jersey) (Smith et al., New Engl. J. Med. 340: 493-501 (1999); Tenover et al., J. Clin. Microbiol. 36: 1020-1027 (1998)), Staphylococcus aureus NRS3 (963sm; HIP5827; Michigan) (Smith et al., ibid.; Tenover et al., ibid.), Staphylococcus aureus NRS103 (Becker) (Karakawa and Vann, Sem. Infect. Dis. 4: 285 (1982), Staphylococcus aureus NRS102 (Reynolds) Karakawa and Vann, ibid; McMurray et al., JID 162: 759-762 (1990)), Staphylococcus epidermidis NRS101 (ATCC 35984), Streptococcus pneumoniae (ATCC 49619), Enterococcus faecalis (ATCC 51299), and Staphylococcus aureus (ATCC 43300.
(§2) Stock cultures of these strains were obtained by seeding colonies from overnight streak plates (Tryptic Soy Agar II (TSAII) and 5% sheep's blood (SB) agar plates: Becton Dickinson, CA#2211261) into sterile Mueller-Hinton Broth (MHB)(Becton Dickinson, CA#211443) and growing the suspensions to mid-late log phase in 13 mL screw-cap tubes. Glycerol (Sigma, CA#G-6279) was sterilized by autoclaving for 15 minutes at 121° C. in 6 mL volumes, and then stored at 2-8° C. This was diluted to 20% in dH2O, and then added 1:1 (250 μL:250 μL, 10% final glycerol concentration) to the logarithmically growing bacterial suspension of each strain. Tubes were frozen and stored at −70° C. Purity of the stock cultures was tested by thawing one tube of each strain in a water bath at 37° C. and plating them on TSAII with 5% SB. Plates were incubated overnight at 37° C. and colonies were examined for morphology. Growth curves and approximate CFU/mL were also obtained.
(§3) High purity substituted oxazolidinones prepared according to the method of the present invention and a ZYVOX standard (ZYVOX is a trade name for linezolid available from Pharmacia Corporation) were provided by Synthon Corporation, Monmouth Junction, N.J. Compounds were dissolved at 10 mg/mL in DMSO, as after a dilution of approx. 39.0 to reach the desired final starting concentration of 256 ug/ml, the concentration of DMSO is approximately 2.5%. Compounds were then stored at room temperature (25° C.) in the dark.
(§4) Antimicrobial susceptibility screening was as follows. All compounds were initially screened for activity in duplicate at 256 μg/mL (2.5% DMSO), including ZYVOX, the positive control for antimicrobial activity. A single well of bacterially inoculated 2.5% DMSO served as a positive control for bacterial growth, while a well of DMSO inoculated with of 50 μL of sterile 0.9% saline served as a negative growth control. Controls were prepared on every microplate, so that 46 was the maximum number of compounds that were screened per plate. Broth was pipetted into sterile microcentrifuge tubes, to which the compounds were then added (1:19.53 dilution or 2× final concentration). Each tube was vortexed, and 50 μL was immediately transferred to the microplate wells for each strain. Solubility was assessed by visual observation. MB (medium broth solubility) was recorded if the solution appeared only slightly cloudy. LB (low broth solubility) was recorded if the solution was extremely cloudy, and especially if larger, clumpy precipitates formed. Bacteria were grown as described above, although absorbance was measured at 650 nm and bacteria were diluted to an initial OD of 0.12-0.15. Bacteria were then further diluted 1:100 with 0.9% sterile saline. Within 15 minutes of this final dilution, 50 μL of this suspension was added to each well for a final volume of […], and a final bacterial concentration of 1×10^5 CFU/mL (except for the negative control well). Plates were grown as above and all observations were recorded. […]

[2] = test system: Enterococcus faecalis (ATCC 51299); assay: Broth microdilution MIC, Enterococcus faecalis ATCC 51299
From the text: as §1, §2, §3, §4

[3] = test system: Staphylococcus aureus 29213; assay: Broth microdilution MIC, Staphylococcus aureus ATCC 29213; conditions: for MIC90 / MIC: Staphylococcus aureus; for MIC90: ATCC29212, Table 1, read-out: MIC90-100 SA ATCC 29212; for MIC: ATCC29213, Table 2, read-out: MIC(90-100) SA-ATCC 29213
From the text: as §1, §2, §3, §4

[4] = test system: Staphylococcus aureus (ATCC 43300); assay: Broth microdilution MIC, MR SA ATCC 43300; conditions: ATCC43300, methicillin resistant SA, read-out: MIC90-100 MR SA ATCC 43300
From the text: as §1, §2, §3, §4

[5] = test system: Myeloid bone marrow cells; assay: Bone marrow cell growth inhibition, myeloid
From the text: (§5) In general, many of the substituted oxazolidinones were as effective as ZYVOX.

[6] = test system: Erythroid bone marrow cells; assay: Bone marrow cell growth inhibition, erythroid
From the text: as §5

[7] = test system: Staphylococcus aureus NRS4 (992; HIP5836; New Jersey); assay: Broth microdilution MIC, MR SA New Jersey; conditions: strain New Jersey; for MIC90: Staphylococcus aureus, NRS4, methicillin resistant SA, read-out: MIC90-100 MR SA New Jersey
From the text: as §1, §2, §3, §4

[8] = test system: Enterococcus faecalis 29212; assay: Broth microdilution MIC, Enterococcus faecalis ATCC 29212; conditions: for MIC90: ATCC29213, Table 1, read-out: MIC90-100 EF ATCC 29213
[9] = test system: Megakaryocytic bone marrow cells; assay: Bone marrow cell growth inhibition, megakaryocytic
From the text: as §5

[10] = test system: Staphylococcus aureus NRS103 (Becker); assay: Broth microdilution MIC, Ref SA Becker; conditions: strain Becker, read-out: MIC90-100 Ref SA Becker
From the text: as §1, §2, §3, §4

[11] = test system: Staphylococcus aureus NRS102 (Reynolds); assay: Broth microdilution MIC, Pen. R SA Reynolds; conditions: strain Reynolds, read-out: MIC90-100 Pen. R SA Reynolds
From the text: as §1, §2, §3, §4

[12] = ATCC51299, vancomycin sensitive EF, ATCC 51299, read-out: MIC90-100 VS EF ATCC 51299
[13] = Enterococcus faecalis, EF, strain printed ATCC 29213

SMILES | MIC90 [1] [µg/mL] | MIC90 [2, 12] [µg/mL] | MIC90 ([3]; SA, strain ATCC 29212) [µg/mL] | MIC [3] [µg/mL] | MIC90 [4] [µg/mL] | IC50 [5] [µg/mL] | IC50 [6] [µg/mL] | MIC90 [7] [µg/mL] | MIC90 [8, 13] [µg/mL] | IC50 [9] [µg/mL] | MIC90-100 MR SA Michigan ([1]; methicillin resistant SA) [µg/mL] | MIC90-100 SA ATCC 29212 ([3]; Table 1, SA, strain ATCC 29212) [µg/mL] | MIC90-100 MR SA New Jersey ([7]; methicillin resistant SA) [µg/mL] | MIC90-100 EF ATCC 29213 ([8]; Table 1, EF, strain printed ATCC 29213) [µg/mL] | MIC90 [10] [µg/mL] | MIC90 [11] [µg/mL] | MIC90 ([2]; ATCC51299, read-out: MIC90-100 VS EF ATCC 51299) [µg/mL] | MIC ([8]; Enterococcus faecalis, ATCC29212, Table 2, read-out: MIC(90-100) EF-ATCC 29212) [µg/mL]
CC(C)N1C[C@@H](COS(=O)(=O)c2ccc([N+](=O)[O-])cc2)OC1=O [Compound 253] | 256 (≈ 743 µM) | > 256 | 8 to 16 (≈ 23.2 to 46.5 µM) | 15.6 (≈ 45.3 µM) | > 256 | 30 (≈ 87.1 µM) | 7 (≈ 20.3 µM) | 256 (≈ 743 µM) | 250 (≈ 726 µM) | 10 (≈ 29 µM) | – | – | – | – | – | – | – | –
CCN1C[C@@H](COS(=O)(=O)c2ccc([N+](=O)[O-])cc2)OC1=O [Compound 1192] | – | > 256 | – | 8 (≈ 24.2 µM) | 128 (≈ 388 µM) | 5 (≈ 15.1 µM) | 0.05 (≈ 0.151 µM) | – | – | 0.6 (≈ 1.82 µM) | 256 (≈ 775 µM) | 4 to 8 | 256 (≈ 775 µM) | 250 (≈ 757 µM) | – | – | – | –
CCN1C[C@H](CNSc2ccc([N+](=O)[O-])cc2)OC1=O [Compound 1715] | 3 (≈ 10.1 µM) | 8 (≈ 26.9 µM) | 2 (≈ 6.73 µM) | – | 4 (≈ 13.5 µM) | 5 (≈ 16.8 µM) | 0.7 (≈ 2.35 µM) | 3 (≈ 10.1 µM) | 4 (≈ 13.5 µM) | 0.08 (≈ 0.269 µM) | – | – | – | – | 8 (≈ 26.9 µM) | 32 (≈ 108 µM) | – | –
O=C(OC[C@H]1CN(c2ccc([N+](=O)[O-])cc2)C(=O)O1)Oc1ccc([N+](=O)[O-])cc1 [Compound 1809] | 3 (≈ 7.44 µM) | – | 4 to 8 (≈ 9.92 to 19.8 µM) | 8 (≈ 19.8 µM) | 4 (≈ 9.92 µM) | – | – | 3 (≈ 7.44 µM) | 4 (≈ 9.92 µM) | – | – | – | – | – | 4 (≈ 9.92 µM) | 8 (≈ 19.8 µM) | 2 (≈ 4.96 µM) | 4 (≈ 9.92 µM)

Further lines, with some results ahead:

MIC90 [1] [µg/mL] | MIC90 [2, 12] [µg/mL] | MIC90 ([3]; SA, strain ATCC 29212) [µg/mL] | MIC [3] [µg/mL] | MIC90 [4] [µg/mL] | IC50 [5] [µg/mL] | IC50 [6] [µg/mL] | MIC90 [7] [µg/mL] | MIC90 [8, 13] [µg/mL] | IC50 [9] [µg/mL] | MIC90-100 MR SA Michigan ([1]; methicillin resistant SA) [µg/mL] | MIC90-100 SA ATCC 29212 ([3]; Table 1, SA, strain ATCC 29212) [µg/mL] | MIC90-100 MR SA New Jersey ([7]; methicillin resistant SA) [µg/mL] | MIC90-100 EF ATCC 29213 ([8]; Table 1, EF, strain printed ATCC 29213) [µg/mL] | MIC90 [10] [µg/mL] | MIC90 [11] [µg/mL] | SMILES | MIC90 ([2]; ATCC51299, read-out: MIC90-100 VS EF ATCC 51299) [µg/mL] | MIC ([8]; Enterococcus faecalis, ATCC29212, Table 2, read-out: MIC(90-100) EF-ATCC 29212) [µg/mL]
256 (≈ 661 µM) | > 256 | 16 to 32 (≈ 41.3 to 82.6 µM) | 32 (≈ 82.6 µM) | 100 (≈ 258 µM) | 20 (≈ 51.6 µM) | 20 (≈ 51.6 µM) | 256 (≈ 661 µM) | 250 (≈ 645 µM) | 0.9 (≈ 2.32 µM) | – | – | – | – | – | – | CN(C)C(=O)CN1C[C@@H](COS(=O)(=O)c2ccc([N+](=O)[O-])cc2)OC1=O [Compound 1021] | – | –
2 (≈ 6.42 µM) | 8 (≈ 25.7 µM) | 2 (≈ 6.42 µM) | – | 4 (≈ 12.8 µM) | 5 (≈ 16.1 µM) | 0.5 (≈ 1.61 µM) | 3 (≈ 9.64 µM) | 4 (≈ 12.8 µM) | 0.08 (≈ 0.257 µM) | – | – | – | – | 4 (≈ 12.8 µM) | 32 (≈ 103 µM) | CC(C)N1C[C@@H](CNSc2ccc([N+](=O)[O-])cc2)OC1=O [Compound 1705] | – | –
2 (≈ 5.93 µM) | 0.5 (≈ 1.48 µM) | 2 (≈ 5.93 µM) | – | 1 (≈ 2.96 µM) | 20 (≈ 59.3 µM) | 0.08 (≈ 0.237 µM) | 2 (≈ 5.93 µM) | 2 (≈ 5.93 µM) | 4 (≈ 11.9 µM) | – | – | – | – | 1 (≈ 2.96 µM) | 1 (≈ 2.96 µM) | CC(=O)NC[C@H]1CN(c2ccc(N3CCOCC3)c(F)c2)C(=O)O1 [ZYVOX, linezolid, reference compound] | – | –
